US20030073731A1, “Compositions and methods of the use thereof achiral analogues of CC-1065 and the duocarmycins” (priority 2000, published 2003)
Read-outs that look alike come from different tables or passages of the source.

Tests used:
[1] = system: OVCAR-3
[2] = system: SW-620
[3] = system: human H522 lung cancer
Experimental: For these assays, human tumor cells are cultivated in polyvinylidene fluoride (PVDF) hollow fibers, and a sample of each cell line is implanted into each of two physiologic compartments (intraperitoneal and subcutaneous) in mice. […] Three mice are treated with potential antitumor compounds at each of 2 test doses by the intraperitoneal route using a QD×4 treatment schedule. Vehicle controls consist of 6 mice receiving the compound diluent only. The fiber cultures are collected on the day following the last day of treatment. To assess anticancer effects, viable cell mass is determined for each of the cell lines using a formazan dye (MTT) conversion assay. From this, the %T/C can be calculated using the average optical density of the compound treated samples divided by the average optical density of the vehicle controls. In addition, the net increase in cell mass can be determined for each sample as a sample of fiber cultures are assessed for viable cell mass on the day of implantation into mice. Thus, the cytostatic and cytocidal capacities of the test compound can be assessed.
The data are reported as %T/C for each of the 2 compound doses against each of the cell lines with separate values calculated for the intraperitoneal and subcutaneous samples.
Compounds are selected for further in vivo testing in standard subcutaneous xenograft models on the basis of several hollow fiber assay criteria. […] The intraperitoneal and subcutaneous samples are scored separately so that criteria (1) and (2) can be evaluated. Compounds with a combined IP+SC score≧20, a SC score×8 or a net cell kill of one or more cell lines are referred for xenograft testing. These criteria were statistically validated by comparing the activity outcomes of ≧80 randomly selected compounds in the hollow fiber assay and in the xenograft testing.

[4] = system: PC3 (human prostate cancer cells); assay: cells; type: cell-based
Experimental: (§1) Cells were seeded in 96-well microtiter plates at densities of 1000 cells/well. The optimal seeding density was determined to ensure exponential growth in control wells throughout the experimental period and to obtain a linear relationship between absorbance at 492 nm and cell number when analyzed by the sulforhodamine B (SRB) assay (43). 24 hours after seeding the cells were incubated for 1 hour or continuously for 3 days with the drugs (concentration range 0.01 to 500 pM). The cells were washed once and then incubated in drug free medium for 6 days. At the end of the incubation cell growth was determined by the SRB assay, which quantifies viable cells by measuring their total cellular protein content. […] Similar studies were conducted against the growth of PC3 (human prostate cancer cells) and MCF-7 (human breast cancer cells).

[5] = system: SF-539
[6] = system: SK-MEL-28
[7] = system: MALME-3M; type: cell-based, human
[8] = system: MDA-MB-435
[9] = system: U251
[10] = system: SR; assay: cells; type: cell-based, human
[11] = system: ACHN
[12] = system: IGROV1; assay: cells; type: cell-based, human
[13] = system: NCI-H332M
[14] = system: HOP-92
[15] = system: CAKI-1
[16] = system: OVCAR-5; type: cell-based, human
[17] = system: SN12C
[18] = system: MCF7/ADR-RES; assay: cells; type: cell-based, human
[19] = system: KM12
[20] = system: plasmid pBR322 DNA; assay: Taq polymerase stop assay; type: biochemical
[21] = system: MOLT-4
[22] = system: OVCAR-4; type: cell-based, human
[23] = system: MDA-MB-231/ATCC; assay: cells; conditions: Homo sapiens
[24] = system: T-470; assay: NCI in-vitro cytotoxicity screen, Breast Cancer panel; type: cell-based, human; conditions: T-470
Experimental: (§2) The compounds of this invention were also tested against the panel of 60 human cancer cell lines at the National Cancer Institute, Bethesda, Md. […] The cytotoxicity studies were conducted using a 48 hour exposure, and measuring the optical density of sulforhodamine B-derived color.

[25] = system: A498; assay: NCI in-vitro cytotoxicity screen, Renal Cancer panel; type: cell-based; conditions: Homo sapiens
Experimental: as §2

[26] = system: MCF-7 (human breast cancer cells); assay: cells; type: cell-based
Experimental: as §1

[27] = system: RXF 393; assay: NCI in-vitro cytotoxicity screen, Renal Cancer panel; type: cell-based; conditions: Homo sapiens
Experimental: as §2

[28] = system: HCC-2998; assay: cells; conditions: Homo sapiens
[29] = system: K562 human chronic myeloid leukemia cells; assay: cells; type: cell-based
Experimental: The cytotoxicity was determined using a MTT tetrazolium dye assay (42). […] The incubation was terminated by centrifugation (5 minutes, 300 g) and the cells were washed once with drug-free medium. Following the appropriate drug treatment, the cells were transferred to 96-well microtitre plates, 10^4 cells per well, 8 wells per sample. Plates were then kept in the dark at 37° C. in a humidified atmosphere containing 5% CO2. […] Following incubation of the plates for 4 days (to allow control cells to increase in number by 10 fold) 20 μL of a 5 mg/mL solution of MTT in phosphate buffered saline was added to each well and the plates further incubated for 5 hours. The plates were then centrifuged for 5 minutes at 300 g and the bulk of the medium pipetted from the cell pellet leaving 10-20 μL per well. 200 μL DMSO was added to each well and the samples agitated to ensure complete mixing. The optical density was the read at a wavelength of 550 nm on a Titertek Multiscan ELISA plate reader, and the dose-response curve was constructed.

[30] = system: HT29; assay: cells; conditions: Homo sapiens
[31] = system: SNB-19; assay: cells; conditions: Homo sapiens
[32] = system: M14; assay: cells; conditions: Homo sapiens
[33] = system: TK-10; assay: cells; conditions: Homo sapiens
[34] = system: K-562; assay: cells; conditions: Homo sapiens

## 4-(2-Chloroethyl)-3-[5-(5-benzofuran-2-carboxamido)indole-2-carboxamido]phenol [Compound 1]
[1]
  GI50: 2130 nM
  TGI: 4.69E-06 Molar
[2]
  GI50: 2010 nM
  TGI: 8.19E-06 Molar
[3]
  IP+SC score: 18
  cell kill: significant cells kill was observed
[3]; intraperitoneal fibers
  IP score: 8
[3]; subcutaneous fibers
  SC score: 10
[4]; PC3, Continuous exposure
  IC50: 3000 nM
[5]
  GI50: 1920 nM
  TGI: 4.16E-06 Molar
[6]
  GI50: 2400 nM
  TGI: 6.10E-06 Molar
[7]
  GI50: 1840 nM
  TGI: 3.56E-06 Molar
[8]
  GI50: 1890 nM
  TGI: 3.75E-06 Molar
[9]
  GI50: 2410 nM
  TGI: 1.23E-05 Molar
[10]
  GI50: 852 nM
  TGI: 8.12E-06 Molar
[11]
  GI50: 1530 nM
  TGI: 5.55E-06 Molar
[12]
  GI50: 1500 nM
  TGI: 3.41E-06 Molar
[13]
  GI50: 2830 nM
  TGI: 9.60E-06 Molar
[14]
  GI50: 2620 nM
[15]
  GI50: 2300 nM
  TGI: 7.19E-06 Molar
[16]
  GI50: 2280 nM
  TGI: 5.80E-06 Molar
[17]
  GI50: 3100 nM
  TGI: 9.41E-06 Molar
[18]; MCF7/ADR-RES
  GI50: 1650 nM
  TGI: 3.79E-06 Molar
[18]; MCF7/ADR-RES, Log10 Concentration (Molar) −4.0
  Percent Growth: −55%
[18]; MCF7/ADR-RES, Log10 Concentration (Molar) −7.0
  Percent Growth: 97%
[19]
  GI50: 18800 nM
  TGI: 3.50E-05 Molar
[20]
  sequence selectivity compared with compound 27: stronger sequence selectivity than 27
[21]
  GI50: 1140 nM
[22]
  GI50: 2390 nM
  TGI: 5.06E-06 Molar

## COC(=O)c1[nH]c2c(O)cc(NC(=O)c3cc4cc(OC)c(OC)c(OC)c4[nH]3)c(CCCl)c2c1C(=O)OC [Compound 22, Dimethyl 4-(2-chloroethyl)-7-hydroxy-5-(5,6,7-trimethoxyindole-2-carboxamido)indole-2,3-dicarboxylate]
[23]; MDA-MB-231
  GI50: 171 nM
[23]; MDA-MB-231, read-out: LC50
  CC50: > 50000 nM
[24]; Homo sapiens
  GI50: 171 nM
[24]; Log10 Concentration −4.3
  Percent Growth: 14%
[4]; Homo sapiens, PC3, 1 hour exposure
  IC50: 350 nM
[4]; Homo sapiens, PC3, Continuous exposure
  IC50: 50 nM
[25]; A498
  GI50: 164 nM
[25]; A498, read-out: LC50
  CC50: 20700 nM
[26]; MCF7, MCF-7, 1 hour exposure
  IC50: 970 nM
[26]; MCF7, MCF-7, Continuous exposure
  IC50: 130 nM
[27]; RXF 393
  GI50: 74.7 nM
[27]; RXF 393, read-out: LC50
  CC50: 21500 nM
[10]; Homo sapiens, SR, SB
  GI50: 5.6 nM
[28]; HCC 2998
  GI50: 102 nM
[28]; HCC 2998, read-out: LC50
  CC50: 10800 nM
[29]; 1 hour exposure
  IC50: 310 ± 220 nM
[29]; 72 h, continuous exposure (3 days)
  IC50: 250 ± 96 nM
[12]; Homo sapiens, IGROV-1, IGROV1
  GI50: 62.1 nM
[30]; HT-29
  GI50: 68.1 nM
[30]; HT-29, read-out: LC50
  CC50: 2340 nM
[14]; HOP-92
  TGI: 2.57E−07 Molar
[31]; SNB-19
  GI50: 173 nM
[31]; SNB-19, read-out: LC50
  CC50: > 50000 nM
[32]; M14
  GI50: 76.4 nM
[32]; M14, read-out: LC50
  CC50: 368 nM
[18]; Homo sapiens, NCI/ADR-RES
  GI50: 137 nM
[33]; TK-10
  GI50: 272 nM
[33]; TK-10, read-out: LC50
  CC50: > 50000 nM
[34]; K562
  GI50: 315 nM
[34]; K562, read-out: LC50
  CC50: > 50000 nM
